Measured values: paper PMC12136037, “Type II kinase inhibitors that target Parkinson’s disease–associated LRRK2” (Science Advances, 2025)
Like-named read-outs stand apart in the source and are kept apart here.

Tests used:
Assay in all cases: DSF 100 kinase selectivity screen;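 note: compound tested at 20 µM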
Type in all cases: binding
[1] = biological target: T1, ~100 representative kinases (Homo sapiens, UniProt O14936); conditions: Protein CASK; average of three replicates
T1 construct: Recombinant protein kinase domains with a concentration of 2 μM
T1 sequence (O14936 1-926): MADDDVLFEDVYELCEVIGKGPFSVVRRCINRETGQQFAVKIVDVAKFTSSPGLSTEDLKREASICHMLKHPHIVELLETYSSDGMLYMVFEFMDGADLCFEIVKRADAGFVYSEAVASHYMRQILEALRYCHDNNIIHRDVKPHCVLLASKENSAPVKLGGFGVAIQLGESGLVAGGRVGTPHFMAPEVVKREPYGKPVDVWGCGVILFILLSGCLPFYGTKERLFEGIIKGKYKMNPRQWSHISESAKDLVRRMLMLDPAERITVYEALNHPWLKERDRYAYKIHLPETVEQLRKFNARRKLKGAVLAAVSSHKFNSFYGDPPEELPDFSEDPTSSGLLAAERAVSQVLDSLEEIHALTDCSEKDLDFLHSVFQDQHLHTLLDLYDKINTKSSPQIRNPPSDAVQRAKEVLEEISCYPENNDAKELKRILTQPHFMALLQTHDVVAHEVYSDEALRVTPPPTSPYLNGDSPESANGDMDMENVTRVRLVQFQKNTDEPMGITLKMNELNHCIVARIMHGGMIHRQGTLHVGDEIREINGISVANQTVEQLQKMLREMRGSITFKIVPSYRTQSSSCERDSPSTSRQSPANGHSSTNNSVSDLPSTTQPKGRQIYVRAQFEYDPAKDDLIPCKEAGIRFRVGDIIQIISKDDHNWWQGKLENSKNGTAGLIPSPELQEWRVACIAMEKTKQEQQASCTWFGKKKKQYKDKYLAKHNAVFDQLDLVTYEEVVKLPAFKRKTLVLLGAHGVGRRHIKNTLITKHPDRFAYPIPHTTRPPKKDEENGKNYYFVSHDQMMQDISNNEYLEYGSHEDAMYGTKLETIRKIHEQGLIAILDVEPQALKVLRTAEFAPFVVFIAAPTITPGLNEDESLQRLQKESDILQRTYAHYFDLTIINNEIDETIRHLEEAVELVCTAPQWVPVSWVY
Protocol: (§1) Recombinant protein kinase domains with a concentration of 2 μM were mixed with a 20 μM compound solution in dimethyl sulfoxide (DMSO), 20 mM Hepes (pH 7.5), and 500 mM NaCl. SYPRO Orange (5000×, Invitrogen) was added as a fluorescence probe (1μl/ml). Subsequently, temperature-dependent protein unfolding profiles were measured using the QuantStudio 5 realtime PCR machine (Thermo Fisher Scientific, Waltham, MA, USA). […] The temperature was raised with a step rate of 3°C/min. […] Differences in melting temperature are given as ΔTm values in degrees Celsius. […]

[2] = biological target: T2, ~100 representative kinases (Homo sapiens, UniProt P22830); conditions: protein FECH; average of three replicates
T2 construct: Recombinant protein kinase domains with a concentration of 2 μM
T2 sequence (P22830 55-423): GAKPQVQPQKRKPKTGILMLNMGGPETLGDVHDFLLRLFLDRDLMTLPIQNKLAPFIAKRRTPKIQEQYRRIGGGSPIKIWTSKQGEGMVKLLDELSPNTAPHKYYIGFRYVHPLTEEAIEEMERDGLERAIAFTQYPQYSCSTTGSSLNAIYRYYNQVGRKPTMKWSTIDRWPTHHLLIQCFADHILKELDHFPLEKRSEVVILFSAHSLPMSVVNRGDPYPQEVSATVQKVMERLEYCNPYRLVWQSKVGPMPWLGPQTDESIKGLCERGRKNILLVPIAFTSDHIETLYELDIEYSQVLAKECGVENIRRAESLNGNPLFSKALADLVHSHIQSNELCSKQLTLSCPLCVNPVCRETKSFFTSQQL
Protocol: as §1

[3] = biological target: T3, ~100 representative kinases (Homo sapiens, UniProt P45983); conditions: protein MAPK8; average of three replicates
T3 construct: Recombinant protein kinase domains with a concentration of 2 μM
Protocol: as §1

[4] = biological target: T4, ~100 representative kinases (Homo sapiens, UniProt P45984); conditions: protein MAPK9; average of three replicates
T4 construct: Recombinant protein kinase domains with a concentration of 2 μM
Protocol: as §1

[5] = biological target: T5, ~100 representative kinases (Homo sapiens, UniProt P49841); conditions: protein GSK3B; average of three replicates
T5 construct: Recombinant protein kinase domains with a concentration of 2 μM
Protocol: as §1

[6] = biological target: T6, ~100 representative kinases (Homo sapiens, UniProt P51955); conditions: protein NEK2; average of three replicates
T6 construct: Recombinant protein kinase domains with a concentration of 2 μM
T6 sequence (P51955 1-445): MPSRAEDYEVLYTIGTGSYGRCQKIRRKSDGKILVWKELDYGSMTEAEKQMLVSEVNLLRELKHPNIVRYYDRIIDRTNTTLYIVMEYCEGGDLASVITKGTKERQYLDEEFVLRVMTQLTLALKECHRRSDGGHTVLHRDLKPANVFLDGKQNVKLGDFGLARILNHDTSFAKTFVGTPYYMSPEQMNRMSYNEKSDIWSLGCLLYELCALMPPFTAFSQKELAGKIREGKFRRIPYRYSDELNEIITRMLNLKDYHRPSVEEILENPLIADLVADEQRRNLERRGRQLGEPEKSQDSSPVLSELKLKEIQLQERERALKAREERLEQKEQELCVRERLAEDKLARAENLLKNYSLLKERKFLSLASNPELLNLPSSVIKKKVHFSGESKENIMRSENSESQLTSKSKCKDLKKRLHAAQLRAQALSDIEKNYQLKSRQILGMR
Protocol: as §1

[7] = biological target: T7, ~100 representative kinases (Homo sapiens, UniProt Q13043); conditions: Protein STK4; DSF; average of three replicates
T7 construct: Recombinant protein kinase domains with a concentration of 2 μM
T7 sequence (Q13043 1-487): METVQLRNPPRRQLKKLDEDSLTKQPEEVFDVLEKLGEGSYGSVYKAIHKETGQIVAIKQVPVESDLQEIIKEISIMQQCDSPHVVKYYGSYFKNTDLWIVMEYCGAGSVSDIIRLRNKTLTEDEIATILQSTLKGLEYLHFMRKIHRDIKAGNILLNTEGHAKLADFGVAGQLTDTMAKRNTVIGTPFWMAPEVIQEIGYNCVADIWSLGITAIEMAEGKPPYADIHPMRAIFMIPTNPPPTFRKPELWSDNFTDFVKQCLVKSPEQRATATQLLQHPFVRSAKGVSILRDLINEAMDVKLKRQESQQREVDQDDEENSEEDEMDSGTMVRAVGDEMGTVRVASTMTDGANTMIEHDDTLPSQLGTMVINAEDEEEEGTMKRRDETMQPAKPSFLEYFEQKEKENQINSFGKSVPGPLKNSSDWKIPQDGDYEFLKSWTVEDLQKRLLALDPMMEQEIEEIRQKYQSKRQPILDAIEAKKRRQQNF
Protocol: as §1

[8] = biological target: T8, ~100 representative kinases (Homo sapiens, UniProt Q13153); conditions: protein PAK1; average of three replicates
T8 construct: Recombinant protein kinase domains with a concentration of 2 μM
Protocol: as §1

[9] = biological target: T9, ~100 representative kinases (Homo sapiens, UniProt Q16539)
T9 construct: Recombinant protein kinase domains with a concentration of 2 μM
Protocol: as §1

[10] = protein MAPK14, average of three replicates

T5 sequence (P49841 whole entry, the tested form may be a part): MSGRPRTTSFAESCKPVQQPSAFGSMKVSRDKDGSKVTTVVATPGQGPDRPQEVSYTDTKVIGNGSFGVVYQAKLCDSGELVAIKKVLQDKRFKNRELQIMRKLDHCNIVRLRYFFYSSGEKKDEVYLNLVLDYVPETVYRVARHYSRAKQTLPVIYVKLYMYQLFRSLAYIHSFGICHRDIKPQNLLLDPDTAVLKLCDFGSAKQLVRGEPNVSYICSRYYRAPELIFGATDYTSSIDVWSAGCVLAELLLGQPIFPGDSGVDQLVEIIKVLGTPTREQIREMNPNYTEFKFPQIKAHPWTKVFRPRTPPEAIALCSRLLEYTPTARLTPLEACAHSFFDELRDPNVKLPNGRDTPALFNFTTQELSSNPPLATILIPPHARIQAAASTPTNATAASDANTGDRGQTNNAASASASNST
T8 sequence (Q13153 whole entry, the tested form may be a part): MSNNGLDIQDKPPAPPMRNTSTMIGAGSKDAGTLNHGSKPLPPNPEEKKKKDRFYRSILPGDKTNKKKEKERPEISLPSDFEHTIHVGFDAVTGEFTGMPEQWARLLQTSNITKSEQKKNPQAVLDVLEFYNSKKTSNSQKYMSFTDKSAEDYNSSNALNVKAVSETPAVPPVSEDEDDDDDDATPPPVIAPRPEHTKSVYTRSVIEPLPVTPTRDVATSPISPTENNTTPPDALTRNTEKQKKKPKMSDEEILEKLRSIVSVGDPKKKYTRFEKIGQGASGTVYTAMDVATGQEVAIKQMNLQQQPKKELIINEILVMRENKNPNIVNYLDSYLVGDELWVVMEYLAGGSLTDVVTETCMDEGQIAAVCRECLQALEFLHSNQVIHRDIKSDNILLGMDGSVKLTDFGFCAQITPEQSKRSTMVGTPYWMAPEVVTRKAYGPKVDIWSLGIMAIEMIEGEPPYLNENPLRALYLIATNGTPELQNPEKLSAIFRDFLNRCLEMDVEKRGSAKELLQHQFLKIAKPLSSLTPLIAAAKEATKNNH
T3 sequence (P45983 whole entry, the tested form may be a part): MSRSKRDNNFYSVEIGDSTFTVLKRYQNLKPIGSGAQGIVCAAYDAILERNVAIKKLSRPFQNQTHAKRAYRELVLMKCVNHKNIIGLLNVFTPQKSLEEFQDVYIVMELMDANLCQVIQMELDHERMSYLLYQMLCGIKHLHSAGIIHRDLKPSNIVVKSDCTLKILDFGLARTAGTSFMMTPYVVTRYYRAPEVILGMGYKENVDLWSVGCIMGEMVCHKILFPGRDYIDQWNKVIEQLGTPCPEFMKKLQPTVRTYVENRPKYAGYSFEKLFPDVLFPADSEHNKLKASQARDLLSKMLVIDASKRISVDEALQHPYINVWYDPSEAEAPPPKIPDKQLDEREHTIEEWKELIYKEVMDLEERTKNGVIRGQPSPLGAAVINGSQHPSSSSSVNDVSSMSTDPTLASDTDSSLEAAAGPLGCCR
T4 sequence (P45984 whole entry, the tested form may be a part): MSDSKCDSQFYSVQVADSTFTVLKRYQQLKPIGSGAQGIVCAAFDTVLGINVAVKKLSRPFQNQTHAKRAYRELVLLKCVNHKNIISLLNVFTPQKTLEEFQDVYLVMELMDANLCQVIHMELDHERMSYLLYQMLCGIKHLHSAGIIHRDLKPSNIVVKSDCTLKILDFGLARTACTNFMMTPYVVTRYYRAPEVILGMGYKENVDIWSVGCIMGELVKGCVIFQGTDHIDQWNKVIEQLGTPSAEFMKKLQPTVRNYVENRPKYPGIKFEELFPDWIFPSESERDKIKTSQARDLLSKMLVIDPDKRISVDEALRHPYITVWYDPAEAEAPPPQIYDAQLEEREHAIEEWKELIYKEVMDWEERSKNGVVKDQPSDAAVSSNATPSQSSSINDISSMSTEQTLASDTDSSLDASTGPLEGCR
T9 sequence (Q16539 whole entry, the tested form may be a part): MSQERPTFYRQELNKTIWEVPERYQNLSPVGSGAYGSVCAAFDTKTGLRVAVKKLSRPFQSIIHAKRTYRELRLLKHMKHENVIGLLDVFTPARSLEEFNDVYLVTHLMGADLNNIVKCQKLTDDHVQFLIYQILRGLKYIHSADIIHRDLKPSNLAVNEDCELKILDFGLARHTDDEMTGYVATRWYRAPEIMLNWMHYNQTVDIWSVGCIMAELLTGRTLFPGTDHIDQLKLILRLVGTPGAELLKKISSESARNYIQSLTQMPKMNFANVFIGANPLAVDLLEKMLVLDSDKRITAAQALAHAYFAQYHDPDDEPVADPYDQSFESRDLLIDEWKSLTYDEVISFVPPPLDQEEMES

Row | dTm [9, 10] [K] | SMILES | dTm [1] [K] | dTm [2] [K] | dTm [3] [K] | dTm [4] [K] | dTm [5] [K] | dTm [6] [K] | dTm [7] [K] | dTm [8] [K] | dTm [9] [K]
1 | 2.01 | O=C(Nc1cccc(-c2c[nH]c3ncnc(N4CCOCC4)c23)c1)C1(C(=O)Nc2ccc(F)c(Br)c2F)CC1 [Compound 26] | 1.04 | 0.09 | 2.06 | 4.90 | 7.56 | -4.02 | 0.00 | 2.69 | –
2 | 1.86 | O=C(Nc1cc(F)cc(Br)c1)C1(C(=O)Nc2cccc(-c3c[nH]c4ncnc(N5CCOCC5)c34)c2)CC1 [Compound 27] | 1.15 | -2.87 | 1.19 | 4.80 | 3.16 | -2.11 | 0.00 | 3.33 | –
3 | 3.86 | CC(C)(C)c1cc(NC(=O)Nc2cccc(-c3c[nH]c4ncnc(N5CCOCC5)c34)c2)n(-c2ccc3ncccc3c2)n1 [Compound 28] | 0.70 | 1.86 | 3.58 | 6.00 | 13.25 | 2.21 | 8.26 | 5.08 | –

Second part, the compound before the results:

Row | SMILES | dTm [9, 10] [K] | dTm [1] [K] | dTm [2] [K] | dTm [3] [K] | dTm [4] [K] | dTm [5] [K] | dTm [6] [K] | dTm [7] [K] | dTm [8] [K] | dTm [9] [K]
4 | CCSc1nc(NC)c2c(-c3cccc(NC(=O)Nc4cc(C(C)(C)C)nn4-c4ccc(C)cc4)c3)c[nH]c2n1 [Compound 32] | 5.12 | -0.26 | -4.54 | 4.04 | 11.55 | -0.49 | 0.87 | 0.80 | -0.13 | –
5 | COc1cc2c(Oc3ccc(NC(=O)C4(C(=O)Nc5ccc(F)cc5)CC4)cc3F)ccnc2cc1OCCCN1CCOCC1 [Foretinib, reference compound] | – | 0.53 | -11.10 | 2.68 | 2.84 | 3.46 | 1.91 | 8.95 | 1.69 | 6.85
6 | CNC(=O)c1cc(Oc2ccc(NC(=O)Nc3cc(C(C)(C)C)nn3-c3ccc4ncccc4c3)c(F)c2)ccn1 [Rebastinib, reference compound] | 20.84 | -12.03 | -5.98 | 1.99 | 9.78 | 11.89 | 2.06 | 7.33 | 1.98 | –
